{
  "source": "paper PMC11111408",
  "about": "“Concurrent inhibition of oncogenic and wild-type RAS-GTP for cancer therapy” (Nature, 2024)",
  "key": {"[1]": {"target": "T1, CYPA (Homo sapiens, UniProt P62937)", "T1 construct": "His6-TEV-AviTag-CYPA (full-length); His6-TEV (N); made in house; host or cells: BL21(DE3) Escherichia coli", "assay": "CYPA binding affinity (Kd1), SPR", "details": "steady state, (95% CI)", "experimental": "The binding affinity of compounds for CYPA (Kd1) was assessed by SPR on a Biacore 8K instrument as previously described."}, "[2]": {"tested_on": "KRAS^G12C with secondary switch II pocket mutations", "assay": "Cellular nano-BRET KRAS:CRAF disruption, KRAS^G12C with secondary SWII mutations", "type": "cell-based, human", "details": "KRAS^G12C with secondary mutation, 4 h"}, "[3]": {"target": "NRAS^Q61L (Homo sapiens, UniProt P01111+P62937, Q61L)", "assay": "RAS binding affinity of compound-bound CYPA (Kd2), SPR", "details": "steady state SPR, (95% CI)"}, "[4]": {"tested_on": "A375 cells", "assay": "Cellular ERK phosphorylation (pERK)", "type": "cell-based, human"}, "[5]": {"target": "T2, GDP-bound KRAS(G12C) (Homo sapiens, UniProt P01116, G12C)", "T2 construct": "His6-TEV (N); made in house; host or cells: E. coli BL21(DE3)", "assay": "SPR binding of RMC-7977–CYPA binary complex to GDP-bound KRAS", "details": "in vitro"}, "[6]": {"target": "KRAS^G12A (Homo sapiens, UniProt P01116+P62937, G12A)", "assay": "Cellular RAS–RAF (CRAF RBD) disruption, nano-BRET in U2OS cells", "type": "cell-based", "set-up": "expressed in transfected cells; host or cells: U2OS or U2OS PPIA-KO", "details": "(95% CI)", "text": "(§1) KRAS4B, or other small GTPases, containing the indicated mutations were cloned in pNLF-N or pHTN plasmids for expression with an N-terminal nanoluciferase or HaloTag fusion, respectively. […] The following day, the cells were collected by Trypsin and reseeded in a white tissue culture-treated 96-well plate in OptiMem phenol red-free medium (Gibco) containing 4% FBS and a 1:1,000 dilution of NanoBRET 618 HaloTag ligand (Promega). For endpoint concentration response curves, vivazine nanoluciferase substrate was added to 1× concentration in OptiMem phenol red-free medium with 4% FBS. Varying concentrations of inhibitor were added and incubated for 1 or 4 h before the nano-BRET signal was measured on a Perkin Elmer Envision plate reader. For kinetic assays, endurazine nanoluciferase substrate was used in place of vivazine, and the plate was placed in a Cytation5 multi-mode reader pre-equilibrated to 37 °C and 5% CO2."}, "[7]": {"target": "KRAS^Q61H (Homo sapiens, UniProt P01116+P62937, Q61H)", "assay": "Cellular RAS–RAF (CRAF RBD) disruption, nano-BRET in U2OS cells", "type": "cell-based", "set-up": "expressed in transfected cells; host or cells: U2OS or U2OS PPIA-KO", "details": "(95% CI)", "text": "as §1"}, "[8]": {"assay": "Oral bioavailability in mice (LC-MS/MS of blood)", "type": "in vivo", "details": "mouse, whole blood, read-out: Oral Bioavailability m%F"}, "[9]": {"target": "RAS", "assay": "Binding of the CYPA–RMC-7977 binary complex to RAS (Kd2), SPR", "set-up": "species or system human", "details": "all three wild-type RAS proteins", "text": "The basic nitrogen of the piperazine forms a cation–π interaction with W121. e, Oriented by the hydrogen bond to CYPA W121, RAS Y64 forms π-stacking interactions with the pyridine and indole groups. […] Data are mean ± s.d. of independent experiments (KRAS variants (green): wild-type (WT) KRAS, n = 4; KRAS(G12C), KRAS(G12D), KRAS(G12R), KRAS(G12V), KRAS(G13D), n = 6; NRAS variants (blue): NRAS(WT), NRAS(Q61L), n = 4; NRAS(Q61K), NRAS(Q61R), n = 6; HRAS variants (purple): HRAS(WT), n = 5; HRAS(G13R), n = 6; slope = 0.99, 95% confidence interval: 0.8–1.2, R^2 = 0.99; values also shown in Extended Data Tables 1–3).\nThe binding affinity of compound-bound CYPA for the mutant oncogenic RAS proteins (Kd2) mentioned was assessed by SPR on a Biacore 8 K instrument. […] The SPR sensorgrams were fit using either a steady state affinity model or a 1:1 binding (kinetic) model to assess the dissociation constant (Kd) for RAS binding."}, "[10]": {"tested_on": "KRAS^G12X PDAC, CRC and NSCLC xenograft models", "assay": "Panel of 15 KRAS^G12X CDX and PDX xenograft models", "type": "in vivo, mouse", "details": "for % Tumor Volume Change: 10 mg/kg", "experimental": "Xenograft studies were conducted at GenenDesign, Pharmaron, Wuxi AppTec, the laboratory of P. Lito, and the laboratory of C. Ambrogio. […] All procedures related to animal handling, care and treatment were conducted in compliance with all applicable regulations and guidelines of the relevant Institutional Animal Care and Use Committee (IACUC). […] Experimental details are supplied in the Supplementary Methods."}},
  "note": "Where “and” joins values, the source holds several entries; their conditions need not be identical. Equal values may be shown once.",
  "data": [
    {"smiles": "CCn1c(-c2cc(N3CCN(C4CC4)CC3)cnc2[C@H](C)OC)c2c3cc(ccc31)-c1csc(n1)C[C@H](NC(=O)[C@H]1[C@@H]3COC[C@@H]31)C(=O)N1CCC[C@H](N1)C(=O)OCC(C)(C)C2", "note": "[RMC-7977]", "values": [
      {"measurement": "Kd", "setting": "[1]", "result": 0.195, "unit": "µM"},
      {"measurement": "effect of switch II pocket binding mutations (R68, Y96, H95) on potency", "setting": "[2]", "result": "little or no effect"},
      {"measurement": "Kd", "setting": "[3]", "result": 0.24, "unit": "µM"},
      {"measurement": "inhibition of downstream signalling (pERK)", "setting": "[4]; A375, BRAF^V600E, RAS-independent", "result": "No inhibition"},
      {"measurement": "EC50", "setting": "[4]; Homo sapiens, A-375, A375 (BRAF^V600E)", "result": "> 10", "unit": "µM"},
      {"measurement": "binding of RMC-7977–CYPA binary complex to GDP-bound KRAS(G12C)", "setting": "[5]", "result": "No binding was observed"},
      {"measurement": "EC50", "setting": "[6]", "result": 0.0303, "unit": "µM"},
      {"measurement": "EC50", "setting": "[7]", "result": 0.0172, "unit": "µM"},
      {"measurement": "bioavailability", "setting": "[8]", "result": 63, "unit": "%"},
      {"measurement": "Kd", "setting": "[9]", "result": "~0.1", "unit": "µM"},
      {"measurement": "% Tumor Volume Change", "setting": "[10]; CRC039, RMC-7977 10 mg/kg po qd, day 0 on study, individual animals", "result": "241.9% and 219.3% and 159.4%"},
      {"measurement": "% Tumor Volume Change", "setting": "[10]; CRC039, RMC-7977 10 mg/kg po qd, day 4 on study, individual animals", "result": "220.3% and 125.3% and 145.8%"},
      {"measurement": "% Tumor Volume Change", "setting": "[10]; CRC039, RMC-7977 10 mg/kg po qd, day 7 on study, individual animals", "result": "121.8% and 118.8% and 123%"},
      {"measurement": "% Tumor Volume Change", "setting": "[10]; CRC039, RMC-7977 10 mg/kg po qd, day 11 on study, individual animals", "result": "74.4% and 112.7% and 94.2%"},
      {"measurement": "% Tumor Volume Change", "setting": "[10]; CRC039, RMC-7977 10 mg/kg po qd, day 14 on study, individual animals", "result": "80.2% and 106.6% and 94.1%"},
      {"measurement": "% Tumor Volume Change", "setting": "[10]; CRC039, RMC-7977 10 mg/kg po qd, day 18 on study, individual animals", "result": 81.1, "unit": "%"},
      {"measurement": "% Tumor Volume Change", "setting": "[10]; PDAC G12D, BALB/c nude mice, 10 mg/kg po qd, day 0, individual animals", "result": "153.24% and 151.4%"},
      {"measurement": "% Tumor Volume Change", "setting": "[10]; PDAC G12D, BALB/c nude mice, 10 mg/kg po qd, day 3, individual animals", "result": "209.83% and 173.4%"},
      {"measurement": "% Tumor Volume Change", "setting": "[10]; PDAC G12D, BALB/c nude mice, 10 mg/kg po qd, day 7, individual animals", "result": "163.81% and 154.57%"},
      {"measurement": "% Tumor Volume Change", "setting": "[10]; PDAC G12D, BALB/c nude mice, 10 mg/kg po qd, day 14, individual animals", "result": "89.27% and 198.15%"},
      {"measurement": "% Tumor Volume Change", "setting": "[10]; PDAC G12D, BALB/c nude mice, 10 mg/kg po qd, day 17, individual animals", "result": "109.93% and 119.08%"},
      {"measurement": "% Tumor Volume Change", "setting": "[10]; PDAC G12D, BALB/c nude mice, 10 mg/kg po qd, day 21, individual animals", "result": "193.02% and 99.24%"},
      {"measurement": "% Tumor Volume Change", "setting": "[10]; PDAC G12D, BALB/c nude mice, 10 mg/kg po qd, day 24, individual animals", "result": "160.39% and 128.81%"},
      {"measurement": "% Tumor Volume Change", "setting": "[10]; PDAC G12D, BALB/c nude mice, 10 mg/kg po qd, day 28, individual animals", "result": "162.11% and 110.97%"},
      {"measurement": "% Tumor Volume Change", "setting": "[10]; PSN-1, BALB/c nude mice, 10 mg/kg po qd, day 0, individual animals", "result": "179% and 166%"},
      {"measurement": "% Tumor Volume Change", "setting": "[10]; PSN-1, BALB/c nude mice, 10 mg/kg po qd, day 3, individual animals", "result": "154% and 97%"},
      {"measurement": "% Tumor Volume Change", "setting": "[10]; PSN-1, BALB/c nude mice, 10 mg/kg po qd, day 7, individual animals", "result": "134% and 82%"},
      {"measurement": "% Tumor Volume Change", "setting": "[10]; PSN-1, BALB/c nude mice, 10 mg/kg po qd, day 10, individual animals", "result": "126% and 70%"},
      {"measurement": "% Tumor Volume Change", "setting": "[10]; PSN-1, BALB/c nude mice, 10 mg/kg po qd, day 14, individual animals", "result": "117% and 66%"},
      {"measurement": "% Tumor Volume Change", "setting": "[10]; PSN-1, BALB/c nude mice, 10 mg/kg po qd, day 17, individual animals", "result": "116% and 65%"},
      {"measurement": "% Tumor Volume Change", "setting": "[10]; PSN-1, BALB/c nude mice, 10 mg/kg po qd, day 21, individual animals", "result": "121% and 60%"},
      {"measurement": "% Tumor Volume Change", "setting": "[10]; PSN-1, BALB/c nude mice, 10 mg/kg po qd, day 24, individual animals", "result": "131% and 55%"},
      {"measurement": "% Tumor Volume Change", "setting": "[10]; PSN-1, BALB/c nude mice, 10 mg/kg po qd, day 28, individual animals", "result": 132, "unit": "%"},
      {"measurement": "median time to tumour doubling", "setting": "[10]; treatment up to 90 days, Kaplan–Meier analysis", "result": "did not reach a median time to tumour doubling"}
    ]}
  ]
}
